Source: PMC5791048 (Journal of Natural Products, 2017)

Test: A549 cytotoxicity assay
Format: cell-based
Conditions: human, A549 cells (human lung carcinoma)

Structure (SMILES) | IC50 at 72 h [mg/L]
C=C(C)[C@@H]1/C=C/[C@]23O[C@H]2[C@H](C[C@@]2(C)O[C@@H]2C2=CC(C=O)=C(C1)O2)OC3=O [keikipukalide A (1), keikipukalide A] | > 50
C=C(C)[C@H]1CC2=C(C=O)C=C(O2)[C@H]2O[C@]2(C)C[C@@H]2OC(=O)/C(=C\[C@H]1OC(C)=O)[C@H]2OC(C)=O [keikipukalide B (2), keikipukalide B] | > 50
C=C(C)[C@@H]1CCC2=C[C@H](C[C@@]3(C)O[C@@H]3C3=CC(C=O)=C(C1)O3)OC2=O [pukalide aldehyde (6), pukalide aldehyde] | > 50
C=C(C)[C@@H]1/C=C/[C@]23O[C@H]2[C@H](C[C@](C)(O)[C@@H](OC(C)=O)C2=CC(C=O)=C(C1)O2)OC3=O [keikipukalide D (4), keikipukalide D] | > 50
C=C(C)[C@H]1CC2=C(C=O)C=C(O2)[C@H]2O[C@]2(C)C[C@H]2C=C(C(=O)O2)[C@@H](OC(C)=O)C1 [keikipukalide E (5), keikipukalide E] | > 50
C=C(C)[C@@H]1CC(=O)[C@H]2[C@H](C1)[C@@H]1C(=O)O[C@@H]3C[C@]4(C)O[C@H]2C(=O)[C@@H]4[C@H]13 [ineleganolide (7), ineleganolide] | > 50
C=C(C)[C@@H]1C/C=C2\C(=O)O[C@@H](C[C@@]3(C)O[C@@H]3C3=CC(C=O)=C(C1)O3)[C@@H]2OC(C)=O [keikipukalide C (3), keikipukalide C] | > 50
